Key:
mice = test: Analgesic activity, acetic acid writhing; assay type: in vivo
Method: The prodrug compounds are administered either transdermally or orally. The parent compounds are administered orally. The number of writhing that occurred when mice are administered the acetic acid solution are counted, and the rate of inhibition based on the control group which was not pretreated with any test compounds is calculated. […] The A group is the control group.

rats = test: Antipyretic activity, E. coli suspension as pyrogen; assay type: in vivo; conditions: in °C (unit assumed)
Method: Rats are administered with sterilized E. coli suspension as a pyrogen. Each group of rats are administered with a prodrug compounds or parent compounds at a dosage specified below. The prodrug compounds are administered either orally or transdermally. The parent compounds are administered orally.

human skin tissue = conditions: pH 7.4; for In vitro penetration rate (apparent flux), parent compounds: human, 20 %
[1] = Plasma levels after transdermal administration to hairless mice; assay type: in vivo; conditions: for Peak plasma concentration of parent compound after prodrug compound / t, time to peak plasma level of parent compound after prodrug compound: mouse, in vivo; for t, time to peak plasma level after parent compound: parent compound administered (time when taken orally); for Peak plasma concentration after parent compound: parent compound administered, hairless mice
Method: Tested compounds (20% solution or suspension in 1 mL isopropanol) are administered transdermally to the skin of intact hairless mice. The plasma levels of the parent compounds are determined by HPLC.

[2] = 50 mg/kg transdermally, 60 minutes before acetic acid
[3] = 100 mg/kg transdermally, 30 min before acetic acid

In vitro penetration rate (apparent flux), parent compounds (human skin tissue)	t, time to peak plasma level after parent compound [1]	Peak plasma concentration after parent compound [1]	Molecule	% (rate of writhing inhibition) (mice; [2])	No. of Writhing (mice; [2])	body temperature, t = 0 min (rats; 25 mg/kg transdermally)	body temperature, t = 90 min (rats; 25 mg/kg transdermally)	body temperature, t = 180 min (rats; 25 mg/kg transdermally)	body temperature, t = 270 min (rats; 25 mg/kg transdermally)	In vitro penetration rate (apparent flux), prodrug compounds (human skin tissue)	Peak plasma concentration of parent compound after prodrug compound [1]	% (rate of writhing inhibition) (mice; [3])	No. of Writhing (mice; [3])	body temperature, t = 0 min (rats; 100 mg/kg transdermally)	body temperature, t = 90 min (rats; 100 mg/kg transdermally)	body temperature, t = 180 min (rats; 100 mg/kg transdermally)	body temperature, t = 270 min (rats; 100 mg/kg transdermally)	t, time to peak plasma level of parent compound after prodrug compound [1]
–	–	–	8-chloro-(4-N,N-dimethylaminobutyryloxy-pyridine-2-ylamino-methylidene)-3-methyl-2,2-dioxo-2λ^6,7-dithia-3-azabicyclo[4,3,0]nona-8,10-dien-5-one.HCl	50%	17.5	37.53 ± 0.05	36.57 ± 0.05	36.52 ± 0.07	36.51 ± 0.06	–	–	–	–	–	–	–	–	–
–	–	–	CN(C)CCCC(=O)OC1=C(C(=O)Nc2ccccn2)N(C)S(=O)(=O)c2ccsc21.Cl [4-N,N-dimethylaminobutyryloxy-2-methyl-N-2-pyridinyl-2H-thieno[2,3-e]-1,2-thiazine-3-carboxamide 1,1-dioxide.HCl]	53%	16.9	37.54 ± 0.06	36.61 ± 0.06	36.58 ± 0.08	36.55 ± 0.05	1800 μg/cm^2/h	20 mg/L	–	–	–	–	–	–	–
40 μg/cm^2/h	2 to 4 h	10 mg/L	O=C(O)CCC(=O)c1ccc(-c2ccccc2)cc1 [Fenbufen, fenbufen, reference compound]	–	–	–	–	–	–	–	–	–	–	–	–	–	–	–
<1 μg/cm^2/h	2 to 4 h	0.1 mg/L	CN1C(C(=O)Nc2ccccn2)=C(O)c2sccc2S1(=O)=O [Tenoxicam, tenoxicam, reference compound]	–	–	–	–	–	–	–	–	–	–	–	–	–	–	–
–	–	–	CC(=O)O.CCN(CC)CCOC(=O)C(C)c1ccc(-c2ccccc2)c(F)c1 (centres unmarked) [diethylaminoethyl 2-(2-fluoro-4-biphenylyl)propionate.AcOH]	–	–	–	–	–	–	3500 μg/cm^2/h	2000 mg/L	55%	15.6	37.29 ± 0.07	36.82 ± 0.06	36.70 ± 0.05	36.67 ± 0.08	50 min
–	–	–	CC(=O)O.CCN(CC)CCOC(=O)C(C)c1ccc(CC2CCCC2=O)cc1 (centres unmarked) [diethylaminoethyl 2-[4-(2-oxocyclopentyl-methyl)phenyl]propionate.AcOH]	–	–	–	–	–	–	3400 μg/cm^2/h	2000 mg/L	55%	15.7	37.25 ± 0.06	36.71 ± 0.05	36.65 ± 0.08	36.64 ± 0.07	50 min
–	–	–	CC(=O)O.CCN(CC)CCOC(=O)CCC(=O)c1ccc(-c2ccccc2)cc1 [diethylaminoethyl 3-(4-biphenylylcarbonyl)propionate.AcOH]	–	–	–	–	–	–	3600 μg/cm^2/h	2000 mg/L	59%	14.2	37.23 ± 0.06	36.81 ± 0.05	36.65 ± 0.08	36.61 ± 0.07	50 min
–	–	–	CC(=O)O.CCN(CC)CCOC(=O)C(C)c1ccc(N2CC=CC2)c(Cl)c1 (stereo not drawn) [diethylaminoethyl 3-chloro-4-(2,5-dihydro-1H-pyrrol-1-yl)-α-methyl benzeneacetate.AcOH]	–	–	–	–	–	–	3500 μg/cm^2/h	2000 mg/L	60%	14.0	37.27 ± 0.06	36.68 ± 0.05	36.62 ± 0.08	36.58 ± 0.07	50 min

Source: patent US20210353579A1, “HIGH PENETRATION COMPOSITIONS AND USES THEREOF” (Techfields Pharma Co., Ltd., priority 2006, published 2021)
